The test system of test [1] is continuous cell lines of the Beet Armyworm, Spodoptera exigua. The conditions noted are these: cell proliferation assay; cited from earlier work.
Test [2] has as its system Aedes aegypti established cell line. The conditions noted are these: 2 days exposure to 3×10^−7 M; cited from earlier work.
Test [3] concerns Sf21 cells. The test is described as follows: Sf21 cell culture: morphology and count of cells displaying processes (transformants). The class given is cell-based, Spodoptera frugiperda.
The subject of test [4] is Drosophila Kc-H line. To be noted: cited from earlier work.
Test [5] concerns Sf21 cells. It is filed as cell-based, Spodoptera frugiperda.
The test system of test [6] is acetylcholinesterase (ACHE). The conditions noted are these: 10^−6 M; cited from earlier work.

In the case of `Cc1c(COC(=O)[C@@H]2[C@H](/C=C(\Cl)C(F)(F)F)C2(C)C)cccc1-c1ccccc1` (racemic) [bifenthrin], the “activity in undifferentiated cells” value in test [1] is listed as “low activity”.

Regarding `CC(C)(O)CC[C@@H](O)[C@](C)(O)[C@H]1CC[C@@]2(O)C3=CC(=O)[C@@H]4C[C@@H](O)[C@@H](O)C[C@]4(C)[C@H]3CC[C@]12C` [20-hydroxyecdysone], the “stimulation of AChE activity” value in test [2] is on record as 2 fold. Further, the “increase in the number of cells showing one or more processes” value in test [3] (20 μg/ml, counted 2 days after treatment, vs control, n=8) is ~30 fold. The “effect on cell morphology” value in test [3] (TNM-FH medium supplemented with 10 μg/ml, 48 hours after passage (FIG. 2)) is recorded as “numerous cells assume the appearance of monopolar neurons, with prominent axon-like structures”. Moreover, in test [4], the “concentration at which cells extend long processes and acquire acetylcholinesterase activity” value is reported as “greater than or equal to 10^−8 molar”. Take `NC1=N[C@H](O)[C@H]2[C@H]3O[C@]4(O)O[C@@H]([C@@H](O)[C@@]2(N1)[C@@H]4O)[C@]3(O)CO` [TTX, tetrodotoxin]: in test [5], the “effect on veratridine-induced increase in transformants” value was “blocked”. As for `CNC(=O)Oc1ccc2c(c1)[C@]1(C)CCN(C)[C@@H]1N2C.CNC(=O)Oc1ccc2c(c1)[C@]1(C)CCN(C)[C@@H]1N2C.O=S(=O)(O)O` [serine sulfate], the “effect on enzyme (AChE)” value in test [6] is given as “blocked”.

For `COc1ccc(C(=O)O[C@H]2CC[C@@]3(C)[C@@H]4CC[C@H]5[C@]6(O)C[C@H](O)[C@@]7(O)[C@@H](CN8C[C@@H](C)CC[C@H]8[C@@]7(C)O)[C@]6(O)C[C@@]53O[C@]24O)cc1OC` [veratridine], in test [5], the “increase in the number of transformants” value was ~3 fold. With “nerve growth factor: nerve growth factor (NGF)”, the “effect on cell morphology” value in test [3] (20 μg/ml NGF, 48 hours after passage (FIG. 5)) is “does not induce any similar morphological changes”.

These data come from patent US20050221475A1, “Cell culture procedures for inducing a neuronal phenotype in insect cells” (priority 2004, published 2005).
